The target of series [1] is T1, OAT3 (Homo sapiens, UniProt Q8TCC7).
T1 sequence (Q8TCC7 1-542): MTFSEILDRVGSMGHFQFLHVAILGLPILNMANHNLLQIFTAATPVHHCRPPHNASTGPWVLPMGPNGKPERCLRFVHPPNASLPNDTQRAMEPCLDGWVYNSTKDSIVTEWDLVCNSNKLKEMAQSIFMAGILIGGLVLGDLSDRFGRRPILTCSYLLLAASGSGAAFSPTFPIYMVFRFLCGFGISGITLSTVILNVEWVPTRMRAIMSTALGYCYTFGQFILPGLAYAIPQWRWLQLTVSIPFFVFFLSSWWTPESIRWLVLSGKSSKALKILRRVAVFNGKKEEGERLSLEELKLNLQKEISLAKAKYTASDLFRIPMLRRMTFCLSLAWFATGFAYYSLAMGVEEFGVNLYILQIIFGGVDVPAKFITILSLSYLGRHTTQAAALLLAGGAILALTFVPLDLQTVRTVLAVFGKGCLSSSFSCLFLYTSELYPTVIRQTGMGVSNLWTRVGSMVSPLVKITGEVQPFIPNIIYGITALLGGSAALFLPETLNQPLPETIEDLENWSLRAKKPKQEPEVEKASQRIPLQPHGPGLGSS
As to the kind of experiment: OTA uptake in OAT3-overexpressing HEK293 cells (screen and kinetics). As to the method:
(§1) The following experiments were conducted at the University of Washington. Mock HEK293 cells and transporter-overexpressing HEK293 cells (i.e., OAT1–4, OCT2, MATE1/2K, OCTN1, OATP1A2), mock CHO cells, and OCTN2-overexpressing CHO cells were plated in 96 well plates coated with 0.05 mg/mL of poly-D-lysine in 50 μL DPBS at a density of 800,000 cells/mL and grown until reaching over 90% of confluence. […] For uptake experiments in MATE1- and MATE2-K-expressing HEK293 cells, the pH of the incubation buffer was adjusted to 8.0 to facilitate substrate uptake. For uptake experiments in OATP1A2-expressing and OAT4-expressing HEK293 cells, the pH of the incubation buffer was adjusted to 6.5 to mimic pH of the urinary filtrate, as these are apical transporters. The incubation buffer was kept at pH 7.4 for all other transporters. […] Uptake was quenched by removing the substrates/inhibitors and washing the cells 3 times with 200 μL of ice-cold HBSS++. […] The precipitated protein was allowed to dry and subsequently solubilized overnight in 1M NaOH, neutralized with 1 M HCl the next day, and measured by BCA assay.
(§2) All cellular-based assays were conducted in technical triplicate across three independent experiments. […] This cutoff was defined a priori. […] Jnet was then treated as the initial uptake rate, and Km and Vmax values were obtained by fitting the Michaelis–Menten equation to the substrate-concentration data as described above. Intrinsic clearance (CLint) was then calculated by the formula, CLint=Vmax/Km using Vmax and Km values as calculated above. […] At steady-state, the mass balance for intracellular concentrations assuming symmetric passive permeabilities (Papical = Pbasal, taken as Papp from mock assays) and apical efflux gives: Ccell= Cbasal/1+ ke/Pa where Cbasal is the concentration in the basal chamber and ke is the first-order elimination with respect to BCRP. Because the asymmetric efflux ratio ERa is defined as: ERa=1+ ke/Pa

The target in series [2] is T2, OATP1A2 (Homo sapiens, UniProt P46721).
T2 sequence (P46721 1-670): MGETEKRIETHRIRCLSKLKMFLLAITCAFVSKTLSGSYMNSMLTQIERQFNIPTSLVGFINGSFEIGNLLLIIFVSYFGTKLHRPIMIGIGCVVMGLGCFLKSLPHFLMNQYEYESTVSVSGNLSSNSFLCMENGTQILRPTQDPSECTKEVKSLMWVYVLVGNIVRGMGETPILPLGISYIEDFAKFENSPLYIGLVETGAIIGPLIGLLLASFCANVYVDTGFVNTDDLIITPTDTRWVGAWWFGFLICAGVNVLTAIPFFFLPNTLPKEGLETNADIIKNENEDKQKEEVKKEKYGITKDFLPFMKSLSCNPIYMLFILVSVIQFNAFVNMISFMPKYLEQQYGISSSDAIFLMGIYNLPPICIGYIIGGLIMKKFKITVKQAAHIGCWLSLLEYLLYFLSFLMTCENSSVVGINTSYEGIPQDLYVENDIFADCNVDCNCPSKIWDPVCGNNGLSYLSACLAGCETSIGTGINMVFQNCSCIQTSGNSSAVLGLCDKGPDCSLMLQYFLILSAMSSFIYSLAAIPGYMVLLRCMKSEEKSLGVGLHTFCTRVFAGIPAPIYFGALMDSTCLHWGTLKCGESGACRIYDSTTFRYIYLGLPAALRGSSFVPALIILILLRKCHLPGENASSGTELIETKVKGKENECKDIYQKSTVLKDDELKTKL
As to the kind of experiment: OTA uptake in OATP1A2-overexpressing HEK293 cells (screen and kinetics). How it is done:
as §1, §2

The target in series [3] is T3, human BCRP (Homo sapiens, UniProt Q9UNQ0).
T3 sequence (Q9UNQ0 1-655): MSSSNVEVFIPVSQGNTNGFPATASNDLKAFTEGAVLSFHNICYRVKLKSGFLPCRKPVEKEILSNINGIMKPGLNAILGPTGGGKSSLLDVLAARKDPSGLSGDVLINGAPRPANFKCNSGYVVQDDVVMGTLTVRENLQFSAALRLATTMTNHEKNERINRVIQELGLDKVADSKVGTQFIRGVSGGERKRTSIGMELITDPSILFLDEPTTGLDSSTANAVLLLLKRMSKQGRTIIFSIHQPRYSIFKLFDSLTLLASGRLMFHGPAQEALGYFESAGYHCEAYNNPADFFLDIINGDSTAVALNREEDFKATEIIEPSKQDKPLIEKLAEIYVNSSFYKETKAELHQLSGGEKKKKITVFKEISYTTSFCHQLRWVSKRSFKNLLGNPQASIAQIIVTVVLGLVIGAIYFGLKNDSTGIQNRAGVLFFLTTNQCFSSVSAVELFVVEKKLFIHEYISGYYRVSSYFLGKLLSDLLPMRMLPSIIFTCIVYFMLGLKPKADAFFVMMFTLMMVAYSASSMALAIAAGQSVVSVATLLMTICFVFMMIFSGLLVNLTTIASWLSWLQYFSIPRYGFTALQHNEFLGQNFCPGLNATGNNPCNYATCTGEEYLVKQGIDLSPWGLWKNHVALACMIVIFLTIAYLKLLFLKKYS
The series can be described thus: Bidirectional transport of OTA in BCRP-expressing MDCK-II cells. The note with it: net B to A flux, 1.56 to 100 μM OTA. As to the method: as §2

For series [4], the system named is hPEPT (PEPT1, PEPT2). The series can be described thus: OTA uptake in PEPT1- and PEPT2-expressing MDCK-II cells. The settings on record: 10 μM OTA, pH 6.5, 5 min. It is filed as in vitro ADME, human.
The test system of series [5] is SLC17A3 (NPT4). The settings on record: OTA extracellular efflux; cited from earlier work.

SMILES strings stand for the structures.

The term Vmax denotes the top rate of the reaction or transport when substrate is in excess. The Km is the concentration of substrate that gives half-maximal velocity. As to `C[C@@H]1Cc2c(Cl)cc(C(=O)N[C@@H](Cc3ccccc3)C(=O)O)c(O)c2C(=O)O1` [OTA, Ochratoxin A], the maximum rate (Vmax) in series [1] (HEK293, 5 min, 37 °C, pH 7.4, mock-corrected) stood at 141.4 ± 30.3 pmol/mg/min; in series [2] (HEK293, 5 min, 37 °C, pH 6.5, mock-corrected), 801.0 ± 133.9 pmol/mg/min. For the same molecule, the microsomal CLint in series [1] (human, other cell line, pH 7.4) was 56.1 ± 6.3 µL/min/mg; in series [2] (human, other cell line, pH 6.5) it was 21.6 ± 2.3 µL/min/mg. Moreover, the Km at 5 min came to 2.58 ± 0.83 µM in series [1] (human, pH 7.4) and 37.3 ± 6.2 µM in series [2] (human, pH 6.5). In addition, the “apparent CLint estimated by the slope of the linearly fitted line” value in series [3] is 0.29 ± 0.03 µL/min/cm^2. Also, the “hPEPT-mediated transport of OTA” value in series [4] is recorded as “did not observe any hPEPT-mediated transport”. In addition, the Michaelis constant (Km) in series [5] was 803 µM.

Source of the values: publication PMC12655426 (Pharmaceutics, 2025).
